Source: ChEMBL document CHEMBL1151550, “High-affinity FKBP-12 ligands derived from (R)-()-carvone. Synthesis and evaluation of FK506 pyranose ring replacements” (Bioorg Med Chem Lett, 1995)
pKi: −log10 of the molar value.

Each molecule was assayed against Peptidyl-prolyl cis-trans isomerase FKBP1A (Homo sapiens, UniProt P62942) (assay: Inhibitory activity of compound against FK506 binding protein 12 was determined). Conditions: read-out: Ki app.
Chain of Peptidyl-prolyl cis-trans isomerase FKBP1A (P62942 whole entry): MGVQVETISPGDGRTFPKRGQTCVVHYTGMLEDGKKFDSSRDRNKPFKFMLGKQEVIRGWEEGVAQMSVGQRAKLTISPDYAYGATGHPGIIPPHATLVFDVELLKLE

Structure (SMILES)	pKi
COC[C@@H]1CC[C@@H](C)[C@](O)(C(=O)C(=O)N2CCCC[C@H]2C(=O)OCc2ccccc2)C1	6.59
COC(CC(C)C)[C@@H]1CC[C@@H](C)[C@](O)(C(=O)C(=O)N2CCCC[C@H]2C(=O)OCc2ccccc2)C1 (stereo partly specified)	8.55

Next, values leading:

pKi	Structure (SMILES)
6.95	C/C=C\C(OC)[C@@H]1CC[C@@H](C)[C@](O)(C(=O)C(=O)N2CCCC[C@H]2C(=O)OCc2ccccc2)C1 (stereo partly specified)
6.68	CC(C)[C@@H]1CC[C@@H](C)[C@](O)(C(=O)C(=O)N2CCCC[C@H]2C(=O)OCc2ccccc2)C1
7.17	COC(C=C(C)C)[C@@H]1CC[C@@H](C)[C@](O)(C(=O)C(=O)N2CCCC[C@H]2C(=O)OCc2ccccc2)C1 (stereo partly specified)
7.09	COC(C)[C@@H]1CC[C@@H](C)[C@](O)(C(=O)C(=O)N2CCCC[C@H]2C(=O)OCc2ccccc2)C1 (stereo partly specified)
